Measured values from patent US12157730B2, “Heteroaryl derivative, method for producing same, and pharmaceutical composition comprising same as effective component” (VORONOI INC., priority 2019, dated 2024).

Biological target: T1, Ba/F3 cell EGFR Exon20 ins NPH (Homo sapiens, UniProt P00533, INS773NPH)
T1 construct: expressed in transfected cells; host or cells: Ba/F3
Assay: Ba/F3 cell proliferation suppression, EGFR Exon20 ins NPH
Assay type: cell-based
Conditions: GI50 class; Ba/F3 cell line with NPH inserted at Exon20 of EGFR; 72 hours
In short: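 After 72 h compound exposure (twelve 3-fold steps, 0.3 nM–50 um final), live cells were measured by CellTiter-Glo luminescence and growth expressed as % of control to derive GI50. Cells were seeded at 3000–5000 per well a day earlier; Ba/F3 medium contained IL-3; three repeats.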

| Ba/F3 (NPH) Activity | SMILES |
| --- | --- |
| B (50 nM ≤ GI50 < 500 nM) | C=CC(=O)Nc1cc(Nc2cc(N3OCC[C@@H]3c3ccc4ccccc4c3)ncn2)c(OC)cc1N1CCN(C)[C@@H](C)C1 [compound 662, N-(2-((S)-3,4-dimethylpiperazine-1-yl)-4-methoxy-5-((6-((R)-3-(naphthalene-2-yl)isoxazolidine-2-yl)pyrimidine-4-yl)amino)phenyl)acrylamide] |
| A (GI50 < 50 nM) | C=CC(=O)Nc1cc(Nc2cc(N3OCC[C@@H]3c3ccc(Cl)c(F)c3)ncn2)c(OC)cc1N1CCN(C2CC2)CC1 [compound 364, N-(5-((6-((R)-3-(4-chloro-3-fluorophenyl)isoxazolidine-2-yl)pyrimidine-4-yl)amino)-2-(4-cyclopropylpiperazine-1-yl)-4-methoxyphenyl) acrylamide] |
| B (50 nM ≤ GI50 < 500 nM) | C=CC(=O)Nc1cc(Nc2cc(N3OCC[C@@H]3c3cccc(C#N)c3)ncn2)c(OC)cc1N1CCC(N2CC[C@@H](N(C)C)C2)CC1 [compound 492, N-(5-((6-((R)-3-(3-cyanophenyl)isoxazolidine-2-yl)pyrimidine-4-yl)amino)-2-(4-((R)-3-(dimethylamino)pyrolidine-1-yl)piperidine-1-yl)-4-methoxyphenyl) acrylamide] |
| A (GI50 < 50 nM) | C=CC(=O)Nc1cc(Nc2cc(N3OCC[C@@H]3c3ccc(Cl)c(F)c3)ncn2)c(OC)cc1N1CCC(N2CC[C@@H](N(C)C)C2)CC1 [compound 800, N-(5-((6-((R)-3-(4-chloro-3-fluorophenyl)isoxazolidine-2-yl)pyrimidine-4-yl)amino)-2-(4-((R)-3-(dimethylamino)pyrolidine-1-yl)piperidine-1-yl)-4-methoxyphenyl) acrylamide] |
| A (GI50 < 50 nM) | C=CC(=O)Nc1cc(Nc2cc(N3OCC[C@@H]3c3cccc(F)c3F)ncn2)c(OC)cc1N1CCC(N2CCN(C3CCC3)CC2)CC1 [Example 182, N-(2-(4-(4-cyclobutylpiperazine-1-yl)piperidine-1-yl)-5-((6-((R)-3-(2,3-difluorophenyl)isoxazolidine-2-yl)pyrimidine-4-yl)amino)-4-methoxyphenyl) acrylamide] |
| A (GI50 < 50 nM) | C=CC(=O)Nc1cc(Nc2cc(N3OCC[C@@H]3Cc3cccc(F)c3)ncn2)c(OC)cc1N(C)CCN(C)C [compound 992, N-(2-((2-(dimethylamino)ethyl) (methyl)amino)-5-((6-((S)-3-(3-fluorobenzyl)isoxazolidine-2-yl)pyrimidine-4-yl)amino)-4-methoxyphenyl) acrylamide] |
| B (50 nM ≤ GI50 < 500 nM) | C=CC(=O)Nc1cc(Nc2cc(N3OCC[C@@H]3c3cc(F)cc(Cl)c3)ncn2)c(OC)cc1N1CC(N2CCN(C3CC3)CC2)C1 [compound 587, N-(5-((6-((R)-3-(3-chloro-5-fluorophenyl)isoxazolidine-2-yl)pyrimidine-4-yl)amino)-2-(3-(4-cyclopropylpiperazine-1-yl)azetidine-1-yl)-4-methoxyphenyl) acrylamide] |
| A (GI50 < 50 nM) | C=CC(=O)Nc1cc(Nc2cc(N3OCC[C@@H]3c3cccc(C)c3F)ncn2)c(OC)cc1N1CCC(N2CCN(C(C)C)CC2)CC1 [compound 911, N-(5-((6-((R)-3-(2-fluoro-3-methylphenyl)isoxazolidine-2-yl)pyrimidine-4-yl)amino)-2-(4-(4-isopropylpiperazine-1-yl)piperidine-1-yl)-4-methoxyphenyl) acrylamide] |
| C (500 nM ≤ GI50 < 5000 nM) | C=CC(=O)Nc1cc(Nc2cc(N3OCC[C@H]3c3c(F)cccc3F)ncn2)c(OC)cc1N1C[C@H]2CCN(C)[C@H]2C1 [compound 898, N-(5-((6-((S)-3-(2,6-difluorophenyl)isoxazolidine-2-yl)pyrimidine-4-yl)amino)-4-methoxy-2-((3aR,6aR)-1-methylhexahydropyrrolo [3,4-b]pyrrole-5(1H)-yl)phenyl) acrylamide] |
| A (GI50 < 50 nM) | C=CC(=O)Nc1cc(Nc2cc(N3OCC[C@@H]3c3c(F)ccc(F)c3F)ncn2)c(OC)cc1N1CCC(N2C[C@H]3C[C@@H]2CO3)CC1 [compound 641, N-(2-(4-((1R,4R)-2-oxa-5-azabicyclo[2.2.1]heptane-5-yl)piperidine-1-yl)-4-methoxy-5-((6-((R)-3-(2,3,6-trifluorophenyl)isoxazolidine-2-yl)pyrimidine-4-yl)amino)phenyl)acrylamide] |
| A (GI50 < 50 nM) | C=CC(=O)Nc1cc(Nc2cc(N3OCC[C@@H]3Cc3cc(F)cc(F)c3)ncn2)c(OC)cc1N1CCC(N2CCN(C3CC3)CC2)CC1 [compound 1033, N-(2-(4-(4-cyclopropylpiperazine-1-yl)piperidine-1-yl)-5-((6-((S)-3-(3,5-difluorobenzyl)isoxazolidine-2-yl)pyrimidine-4-yl)amino)-4-methoxyphenyl) acrylamide] |
| A (GI50 < 50 nM) | C=CC(=O)Nc1cc(Nc2cc(N3OCC[C@@H]3c3cc(F)ccc3F)ncn2)c(OC)cc1N1CCC(N2C[C@H](C)N(C3CC3)C[C@@H]2C)CC1 [Example 171, N-(2-(4-((2S,5S)-4-cyclopropyl-2,5-dimethylpiperazine-1-yl)piperidine-1-yl)-5-((6-((R)-3-(2,5-difluorophenyl)isoxazolidine-2-yl)pyrimidine-4-yl)amino)-4-methoxyphenyl) acrylamide] |
| A (GI50 < 50 nM) | C=CC(=O)Nc1cc(Nc2cc(N3OCC[C@@H]3c3cccs3)ncn2)c(OC)cc1N1CCC(N2CCN(C3CC3)CC2)CC1 [Example 147, N-(2-(4-(4-cyclopropylpiperazine-1-yl)piperidine-1-yl)-4-methoxy-5-((6-((R)-3-(thiophene-2-yl)isoxazolidine-2-yl)pyrimidine-4-yl)amino)phenyl)acrylamide] |
| B (50 nM ≤ GI50 < 500 nM) | C=CC(=O)Nc1cc(Nc2cc(N3OCC[C@@H]3c3cccc(Cl)c3Cl)ncn2)c(OC)cc1N1CCC(N2CCN(C3CCCC3)CC2)CC1 [Example 206, N-(2-(4-(4-cyclopentylpiperazine-1-yl)piperidine-1-yl)-5-((6-((R)-3-(2,3-dichlorophenyl)isoxazolidine-2-yl)pyrimidine-4-yl)amino)-4-methoxyphenyl) acrylamide] |
| A (GI50 < 50 nM) | C=CC(=O)Nc1cc(Nc2cc(N3OCC[C@@H]3c3cccc(F)c3)ncn2)c(OC)cc1N1CCN(C(C)=O)CC1 [compound 831, N-(2-(4-acetylpiperazine-1-yl)-5-((6-((R)-3-(3-fluorophenyl)isoxazolidine-2-yl)pyrimidine-4-yl)amino)-4-methoxyphenyl) acrylamide] |
| A (GI50 < 50 nM) | C=CC(=O)Nc1cc(Nc2cc(N3OCC[C@@H]3Cc3cc(F)cc(F)c3)ncn2)c(OC)cc1N1CCC(N2C[C@H]3C[C@@H]2CO3)CC1 [compound 1034, N-(2-(4-((1R,4R)-2-oxa-5-azabicyclo [2.2.1]heptane-5-yl)piperidine-1-yl)-5-((6-((S)-3-(3,5-difluorobenzyl)isoxazolidine-2-yl)pyrimidine-4-yl)amino)-4-methoxyphenyl) acrylamide] |
| A (GI50 < 50 nM) | C=CC(=O)Nc1cc(Nc2cc(N3OCC[C@@H]3Cc3cccc(F)c3Cl)ncn2)c(OC)cc1N1CCN(C2CC2)CC1 [compound 1006, N-(5-((6-((S)-3-(2-chloro-3-fluorobenzyl)isoxazolidine-2-yl)pyrimidine-4-yl)amino)-2-(4-cyclopropylpiperazine-1-yl)-4-methoxyphenyl) acrylamide] |
| A (GI50 < 50 nM) | C=CC(=O)Nc1cc(Nc2cc(N3OCC[C@@H]3c3cccc(F)c3)ncn2)c(OC)cc1N1CCC(N2CC[C@H](N(C)C)C2)CC1 [compound 744, N-(2-(4-((S)-3-(dimethylamino)pyrolidine-1-yl)piperidine-1-yl)-5-((6-((R)-3-(3-fluorophenyl)isoxazolidine-2-yl)pyrimidine-4-yl)amino)-4-methoxyphenyl) acrylamide] |
| A (GI50 < 50 nM) | C=CC(=O)Nc1cc(Nc2cc(N3OCC[C@@H]3c3cccc(Cl)c3F)ncn2)c(OC)cc1N1CCN(C)CC1 [compound 789, N-(5-((6-((R)-3-(3-chloro-2-fluorophenyl)isoxazolidine-2-yl)pyrimidine-4-yl)amino)-4-methoxy-2-(4-methylpiperazine-1-yl)phenyl)acrylamide] |
| B (50 nM ≤ GI50 < 500 nM) | C=CC(=O)Nc1cc(Nc2cc(N3OCC[C@@H]3c3cccc(OC)c3)ncn2)c(OC)cc1N1CCC(N(C)C)CC1 [compound 731] |
| A (GI50 < 50 nM) | C=CC(=O)Nc1cc(Nc2cc(N3OCC[C@@H]3c3ccccc3)ncn2)c(OC)cc1N1CCC(N2C[C@H]3C[C@@H]2CO3)CC1 [Example 53, N-(2-(4-((1R,4R)-2-oxa-5-azabicyclo[2.2.1]heptane-5-yl)piperidine-1-yl)-4-methoxy-5-((6-((R)-3-phenylisoxazolidine-2-yl)pyrimidine-4-yl)amino)phenyl) acrylamide] |
| A (GI50 < 50 nM) | C=CC(=O)Nc1cc(Nc2cc(N3OCC[C@@H]3c3ccc(Cl)c(F)c3)ncn2)c(OC)cc1N1C[C@@H]2C[C@H]1CO2 [compound 862, N-(2-((1S,4S)-2-oxa-5-azabicyclo [2.2.1]heptane-5-yl)-5-((6-((R)-3-(4-chloro-3-fluorophenyl)isoxazolidine-2-yl)pyrimidine-4-yl)amino)-4-methoxyphenyl) acrylamide] |
| A (GI50 < 50 nM) | C=CC(=O)Nc1cc(Nc2cc(N3OCC[C@@H]3c3ccc(F)cc3F)ncn2)c(OC)cc1N1CCN(CCN(C)C)CC1 [compound 349, N-(5-((6-((R)-3-(2,4-difluorophenyl)isoxazolidine-2-yl)pyrimidine-4-yl)amino)-2-(4-(2-(dimethylamino)ethyl)piperazine-1-yl)-4-methoxyphenyl) acrylamide] |
